Experimental data reported in US20240368191A1, “HETEROCYCLIC COMPOUNDS AND USES THEREOF” (Kumquat Biosciences Inc., priority 2021, published 2024).

Settings: microsomes

N#Cc1cnn(C(=O)N2C3CCC2CN(c2nc(OC[C@@]45CCCN4C[C@H](F)C5)nc4c(F)c(-c5ccc(F)c6sc(N)c(C#N)c56)c(Cl)cc24)C3)c1 [Compound A278, 1-(3-(7-(2-amino-3-cyano-7-fluorobenzo[b]thiophen-4-yl)-6-chloro-8-fluoro-2-(((2R,7aS)-2-fluorotetrahydro-1H-pyrrolizin-7a(5H)-yl)methoxy)quinazolin-4-yl)-3,8-diazabicyclo[3.2.1]-octane-8-carbonyl)-1H-pyr-azole-4-carbonitrile]
T½ microsomal stability: greater than 10 mins
